This note sets out measurements from patent US20110224210A1, “NOVEL BIS-AMIDES AS ANTI-MALARIAL AGENTS” (priority 2008, published 2011).

In general, IC50 refers to the midpoint of a concentration-inhibition curve.

This experiment concerns P. falciparum K1 (strain resistant to chloroquine and pyrimethamine), erythrocytic stages. Kind of experiment: Plasmodium falciparum in vitro assay, [3H] hypoxanthine incorporation. The format is cell-based. The conditions noted are these: Plasmodium falciparum, K1, P. falciparum strain K1; [3H] hypoxanthine incorporation; read-out: IC50 (nM) on K1. In a few lines: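 K1 strain parasites grown in human red cells, 2.5% haematocrit, 0.3% parasitaemia, 37 °C, 4% CO2/3% O2; compounds in seven serial doubling dilutions.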
Turning to `COCCN(C)C(=O)[C@H](Cc1ccccc1)N(Cc1ccc(N2CCN(C(C)=O)CC2)cc1)C(=O)C=Cc1nc(C)oc1C` [Example 110, (S)-N-[4-(4-Acetyl-piperazin-1-yl)-benzyl]-3-(2,5-dimethyl-oxazol-4-yl)-N-{1-[(2-methoxy-ethyl)-methyl-carbamoyl]-2-phenyl-ethyl}-acrylamide], the IC50 was determined as 324 nM.

Turning to `COCCN(C)C(=O)[C@H](Cc1ccccc1)N(Cc1ccc(-c2ccncc2)cc1)C(=O)C=Cc1ccc(C(F)(F)F)cn1` [Example 102, (S)-N-{1-[(2-Methoxy-ethyl)-methyl-carbamoyl]-2-phenyl-ethyl}-N-(4-pyridin-4-yl-benzyl)-3-(5-trifluoromethyl-pyridin-2-yl)-acrylamide], the IC50 was 6 nM. As for `COCCN(C)C(=O)[C@H](Cc1ccccc1)N(Cc1ccc(-c2ccncc2)cc1)C(=O)C=Cc1ccc(OC)nc1` [Example 101, (S)-N-{1-[(2-Methoxy-ethyl)-methyl-carbamoyl]-2-phenyl-ethyl}-3-(6-methoxy-pyridin-3-yl)-N-(4-pyridin-4-yl-benzyl)-acrylamide], the concentration for half-maximal inhibition (IC50) was determined as 8 nM.

Take `CN(Cc1ccc(NC(=O)c2ccccc2)cc1)C(=O)[C@H](Cc1ccccc1)N(Cc1ccc(N2CCOCC2)cc1)C(=O)C=Cc1ccc(C(F)(F)F)nc1` [Example 275, (S)-N-(4-{[Methyl-(2-{(4-morpholin-4-yl-benzyl)-[3-(6-trifluoromethyl-pyridin-3-yl)-acryloyl]-amino}-3-phenyl-propionyl)-amino]-methyl}-phenyl)-benzamide]: the concentration for half-maximal inhibition (IC50) was 59 nM.

As to `O=C([C@H](Cc1ccccc1)N(Cc1ccccc1)C(=O)C=Cc1ccc(C(F)(F)F)nc1)N1CCC(Cc2ccccc2)CC1` [Example 48, (S)-N-Benzyl-N-[1-benzyl-2-(4-benzyl-piperidin-1-yl)-2-oxo-ethyl]-3-(6-trifluoromethyl-pyridin-3-yl)-acrylamide], the half-maximal inhibitory concentration (IC50) is 8 nM. In the case of `COc1cc(COCCN(C)C(=O)[C@H](Cc2ccccc2)N(Cc2ccc(N3CCOCC3)cc2)C(=O)C=Cc2ccc(C(F)(F)F)cc2)cc(OC)c1` [Example 199, (S)-N-(1-{[2-(3,5-Dimethoxy-benzyloxy)-ethyl]-methyl-carbamoyl}-2-phenyl-ethyl)-N-(4-morpholin-4-yl-benzyl)-3-(4-trifluoromethyl-phenyl)-acrylamide], the IC50 came to 34 nM.

For the compound `CC(=O)N(c1ccccc1)c1ccc(CN(C)C(=O)[C@H](Cc2ccccc2)N(Cc2ccc(N3CCOCC3)cc2)C(=O)C=Cc2ccc(C(F)(F)F)nc2)cc1` [Example 276], the concentration for half-maximal inhibition (IC50) came to 65 nM.

Turning to `COCCN(C)C(=O)[C@H](Cc1ccccc1)N(Cc1ccc(N2CCOCC2)cc1)C(=O)C=Cc1ccc(OC)nc1` [Example 71, (S)-N-{1-[(2-Methoxy-ethyl)-methyl-carbamoyl]-2-phenyl-ethyl}-3-(6-methoxy-pyridin-3-yl)-N-(4-morpholin-4-yl-benzyl)-acrylamide], the IC50 is 54 nM.

As for `CN(C)C1CCN(C(=O)C(Cc2ccn(C)n2)N(Cc2ccc(-c3ccccn3)cc2)C(=O)C=Cc2ccc(C(F)(F)F)cc2)CC1` (racemic) [Example 138], the half-maximal inhibitory concentration (IC50) was 340 nM.

As for `O=C([C@H](Cc1ccccc1)N(Cc1ccc(-c2cccnc2)cc1)C(=O)C=Cc1ccc(C(F)(F)F)nc1)N1CCC(Cc2ccccc2)CC1` [Example 47, (S)-N-[1-Benzyl-2-(4-benzyl-piperidin-1-yl)-2-oxo-ethyl]-N-(4-pyridin-3-yl-benzyl)-3-(6-trifluoromethyl-pyridin-3-yl)-acrylamide], the IC50 stood at 1 nM. As to `COCCN(C)C(=O)[C@H](Cc1ccccc1)N(Cc1ccccc1)C(=O)C=Cc1ccc(C)cc1` [Example 160, (S)-N-Benzyl-N-{1-[(2-methoxy-ethyl)-methyl-carbamoyl]-2-phenyl-ethyl}-3-p-tolyl-acrylamide], the IC50 stood at 93 nM. As for `COCCN(C)C(=O)[C@H](Cc1ccccc1)N(Cc1ccc(-c2ccccn2)cc1)C(=O)C=Cc1ccc(C(F)(F)F)cn1` [Example 89, (S)-N-{1-[(2-Methoxy-ethyl)-methyl-carbamoyl]-2-phenyl-ethyl}-N-(4-pyridin-2-yl-benzyl)-3-(5-trifluoromethyl-pyridin-2-yl)-acrylamide], the IC50 was under 8 nM. The value for `CN(C)CCN(C)C(=O)[C@H](Cc1ccccc1)N(Cc1ccc(-c2ccccn2)cc1)C(=O)C=Cc1ccc(C(F)(F)F)cc1` [Example 171, (S)-N-{1-[(2-Dimethylamino-ethyl)-methyl-carbamoyl]-2-phenyl-ethyl}-N-(4-pyridin-2-yl-benzyl)-3-(4-trifluoromethyl-phenyl)-acrylamide] was 80 nM. Consider `COCCN(C)C(=O)[C@H](Cc1ccccc1)N(Cc1ccc(N2CCN(C(C)=O)CC2)cc1)C(=O)C=Cc1ccc(C(F)(F)F)cc1` [Example 178, (S)-N-[4-(4-Acetyl-piperazin-1-yl)-benzyl]-N-{1-[(2-methoxy-ethyl)-methyl-carbamoyl]-2-phenyl-ethyl}-3-(4-trifluoromethyl-phenyl)-acrylamide], for which the IC50 was 10 nM.

For the compound `CC(C)N(CCNC(=O)[C@H](Cc1ccccc1)N(Cc1ccc(-c2ccccn2)cc1)C(=O)C=Cc1ccc(C(F)(F)F)cc1)C(C)C` [Example 155], the half-inhibitory concentration (IC50) turned out to be 327 nM. Turning to `COc1ccc(CN(C)CCN(C)C(=O)[C@H](Cc2ccccc2)N(Cc2ccc(N3CCN(C(C)=O)CC3)cc2)C(=O)C=Cc2ccc(C(F)(F)F)cc2)cn1` [Example 247, (S)-N-[4-(4-Acetyl-piperazin-1-yl)-benzyl]-N-[1-({2-[(6-methoxy-pyridin-3-ylmethyl)-methyl-amino]-ethyl}-methyl-carbamoyl)-2-phenyl-ethyl]-3-(4-trifluoromethyl-phenyl)-acrylamide], the IC50 came to 26 nM. The figure for `COc1cccc(COCCN(C)C(=O)[C@H](Cc2ccccc2)N(Cc2ccc(N3CCOCC3)cc2)C(=O)C=Cc2ccc(C(F)(F)F)cc2)c1` [Example 191, (S)-N-(1-{[2-(3-Methoxy-benzyloxy)-ethyl]-methyl-carbamoyl}-2-phenyl-ethyl)-N-(4-morpholin-4-yl-benzyl)-3-(4-trifluoromethyl-phenyl)-acrylamide, formic acid] is 11 nM; for `Cc1ccc(C=CC(=O)N(Cc2ccc(-c3ccncc3)cc2)[C@@H](Cc2ccccc2)C(=O)N2CCC(N(C)C)CC2)cn1` [Example 27, (S)-N-[1-Benzyl-2-(4-dimethylamino-piperidin-1-yl)-2-oxo-ethyl]-3-(6-methyl-pyridin-3-yl)-N-(4-pyridin-4-yl-benzyl)-acrylamide] it is 67 nM; for `CN(CCOCc1cccc(C#N)c1)C(=O)[C@H](Cc1ccccc1)N(Cc1ccc(N2CCOCC2)cc1)C(=O)C=Cc1ccc(C(F)(F)F)cc1` [Example 197, (S)-N-(1-{[2-(3-Cyano-benzyloxy)-ethyl]-methyl-carbamoyl}-2-phenyl-ethyl)-N-(4-morpholin-4-yl-benzyl)-3-(4-trifluoromethyl-phenyl)-acrylamide] it is 29 nM.

For `COCCN(C)C(=O)C(CN1CCN(C)CC1)N(Cc1ccc(-c2ccccn2)cc1)C(=O)C=Cc1ccc(C(F)(F)F)cc1` (racemic) [Example 278], the IC50 worked out at 137 nM. As to `CC(=O)N1CCN(c2ccc(CN(C(=O)C=Cc3ccc(C(F)(F)F)cc3)[C@@H](Cc3ccccc3)C(=O)N(C)CCN(C)Cc3cccc(C#N)c3)cc2)CC1` [Example 243, (S)-N-[4-(4-Acetyl-piperazin-1-yl)-benzyl]-N-[1-({2-[(3-cyano-benzyl)-methyl-amino]-ethyl}-methyl-carbamoyl)-2-phenyl-ethyl]-3-(4-trifluoromethyl-phenyl)-acrylamide], the 50% inhibitory concentration (IC50) turned out to be 52 nM. For `CC(=O)N1CCN(c2ccc(CN(C(=O)C=Cc3ccc(C(F)(F)F)cc3)[C@@H](Cc3ccccc3)C(=O)N(C)CCN(C)Cc3ccc(O)cc3)cc2)CC1` [Example 238, (S)-N-[4-(4-Acetyl-piperazin-1-yl)-benzyl]-N-[1-({2-[(4-hydroxy-benzyl)-methyl-amino]-ethyl}-methyl-carbamoyl)-2-phenyl-ethyl]-3-(4-trifluoromethyl-phenyl)-acrylamide], the IC50 is 27 nM. Turning to `COCCN(C)C(=O)[C@H](Cc1ccccc1)N(Cc1ccc(N2CCOCC2)cc1)C(=O)C=Cc1csc(C)n1` [Example 62, (S)-N-{1-[(2-Methoxy-ethyl)-methyl-carbamoyl]-2-phenyl-ethyl}-3-(2-methyl-thiazol-4-yl)-N-(4-morpholin-4-yl-benzyl)-acrylamide], the IC50 was 138 nM.

Take `COCCN(C)C(=O)[C@H](Cc1ccccc1)N(Cc1ccc(N2CCN(C(C)=O)CC2)cc1)C(=O)C=Cc1c(C)nn(C)c1C` [Example 105, (S)-N-[4-(4-Acetyl-piperazin-1-yl)-benzyl]-N-{1-[(2-methoxy-ethyl)-methyl-carbamoyl]-2-phenyl-ethyl}-3-(1,3,5-trimethyl-1H-pyrazol-4-yl)-acrylamide]: the half-maximal inhibitory concentration (IC50) was 44 nM. The figure for `CN(CCN(C)C(=O)[C@H](Cc1ccccc1)N(Cc1ccc(N2CCOCC2)cc1)C(=O)C=Cc1ccc(C(F)(F)F)cc1)Cc1cnc[nH]1` [Example 269, (S)-N-[1-({2-[(3H-Imidazol-4-ylmethyl)-methyl-amino]-ethyl}-methyl-carbamoyl)-2-phenyl-ethyl]-N-(4-morpholin-4-yl-benzyl)-3-(4-trifluoromethyl-phenyl)-acrylamide] is 63 nM.

For `COc1ccc(C=CC(=O)N(Cc2ccc(-c3ccncc3)cc2)[C@@H](Cc2ccccc2)C(=O)N2CCC(N(C)C)CC2)nn1` [Example 26, (S)-N-[1-Benzyl-2-(4-dimethylamino-piperidin-1-yl)-2-oxo-ethyl]-3-(6-methoxy-pyridazin-3-yl)-N-(4-pyridin-4-yl-benzyl)-acrylamide], the concentration for half-maximal inhibition (IC50) came to 465 nM. The figure for `CN(CCN(C)C(=O)[C@H](Cc1ccccc1)N(Cc1ccc(-c2ccccn2)cc1)C(=O)C=Cc1ccc(C(F)(F)F)cc1)Cc1ccccn1` [Example 224, (S)-N-(1-{Methyl-[2-(methyl-pyridin-2-ylmethyl-amino)-ethyl]-carbamoyl}-2-phenyl-ethyl)-N-(4-pyridin-2-yl-benzyl)-3-(4-trifluoromethyl-phenyl)-acrylamide] is 29 nM.
